Reference: US20250000883A1, “TREATING NEUROINFLAMMATORY CONDITIONS” (AN2 Therapeutics, Inc., priority 2021, published 2025)
In brackets after ≈: the same amount, converted by molar mass.

System: Porphyromonas gingivalis
Experiment: Antibacterial MIC testing (agar dilution, anaerobic)
Type: cell-based
Settings: supplemented Brucella agar, 44 h, 36° C.
Method: Epetraborole was placed is a stock solution and stored at −70° C. Serial two-fold dilutions were prepared on the day of testing.
Porphyromonas gingivalis organisms were recovered from clinical samples, identified by standard methods or by partial sequencing of the 16S gene and stored in 20% skim milk at −70° C. All isolates were taken from the freezer and subcultured at least twice on supplemented Brucella agar to ensure good growth. Inocula were prepared by direct suspensions of cells from 48 h cultures into saline or Brucella broth.
For all tested organisms, supplemented Brucella agar deeps were obtained from Anaerobe Systems (Morgan Hill, CA). Defibrinated sheep blood (Hardy Diagnostics, Santa Maria, CA) was frozen and thawed to produce laked blood. On the day of testing, laked blood and the antimicrobial agents were added to the tubes of molten agar before pouring the agar dilution plates. The strains were applied to the plates using a Steers multipronged inoculator for a final concentration of approximately 10^5 cfu/spot. After 44 h incubation at 36° C. in the anaerobic chamber incubator, the plates were examined for growth, and the MICs interpreted.

In the case of `NC[C@H]1OB(O)c2c(OCCCO)cccc21` [Epetraborole], the MIC (Po. gingivalis clinical isolate RMA# 15676 (Abd-perit.fld)) is reported as 2 µg/mL (≈ 8.44 µM), the MIC (Po. gingivalis clinical isolate RMA# 15913 (Abd-perit.fld)) is reported as 2 µg/mL (≈ 8.44 µM) and the MIC (Po. gingivalis clinical isolate RMA# 16269 (Abd-perit.fld)) is reported as 0.125 µg/mL (≈ 0.527 µM). The MIC (Po. gingivalis clinical isolate RMA# 16389 (Abd-perit.fld)) was 0.5 µg/mL (≈ 2.11 µM).
